Consider 71 molecules from ChEMBL document CHEMBL1140601, “Quantitative structure-activity relationship (QSAR) of tacrine derivatives against acetylcholinesterase (AChE) activity using variable selections” (Bioorg Med Chem Lett, 2007).

Chain of Acetylcholinesterase (Homo sapiens) (P22303 whole entry): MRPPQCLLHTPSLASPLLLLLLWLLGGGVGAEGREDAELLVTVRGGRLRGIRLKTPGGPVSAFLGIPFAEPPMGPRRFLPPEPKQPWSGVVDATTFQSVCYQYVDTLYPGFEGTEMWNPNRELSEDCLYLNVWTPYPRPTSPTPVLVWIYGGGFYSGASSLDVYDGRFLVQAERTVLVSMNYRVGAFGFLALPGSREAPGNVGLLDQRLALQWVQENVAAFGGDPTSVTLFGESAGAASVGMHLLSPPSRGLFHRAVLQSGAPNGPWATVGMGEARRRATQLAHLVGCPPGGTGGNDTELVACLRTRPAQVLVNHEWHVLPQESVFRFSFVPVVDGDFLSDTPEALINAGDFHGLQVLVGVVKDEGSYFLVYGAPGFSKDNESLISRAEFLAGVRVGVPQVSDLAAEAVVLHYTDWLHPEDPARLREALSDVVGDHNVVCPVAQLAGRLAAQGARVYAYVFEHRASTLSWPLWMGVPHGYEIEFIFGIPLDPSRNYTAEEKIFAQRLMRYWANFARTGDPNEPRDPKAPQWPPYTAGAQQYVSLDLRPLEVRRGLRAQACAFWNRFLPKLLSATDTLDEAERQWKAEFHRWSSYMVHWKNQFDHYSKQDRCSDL

This experiment addresses Acetylcholinesterase (Homo sapiens) (UniProt P22303).
Description: Inhibition of AchE relative to tacrine
`CCOC(=O)c1c(C)nc2nc3c(c(N)c2c1-c1cccn1C(C)=O)CCCC3` gave a logRA of -1.08.

`CC1=CC2Cc3nc4cc(Cl)ccc4c(NCCCCCCCNc4c5c(nc6cc(Cl)ccc46)CCCC5)c3C(C1)C2` (stereo unspecified) showed a logRA of 2.79.

On to `CCOC(=O)c1c(C)nc2nc3c(c(N)c2c1-c1cccs1)CCC3`, for which the logRA was -2.3.

`CCOC(=O)c1c(C)nc2nc3c(c(N)c2c1-c1ccccc1)CCCCC3`: the logRA is -0.768.

Regarding `CNc1c2c(nc3ccccc13)-c1ccccc1C2`, the logRA is -0.716.

In the case of `CCOC(=O)C1=C(C)Oc2nc3c(c(N)c2C1c1ccc(C)cc1)CCCC3` (stereo unspecified), the logRA is -1.15.

The molecule `CCOC(=O)C1=C(C)Oc2nc3c(c(N)c2C1c1ccccc1)CCCC3` (stereo unspecified) came in with a logRA of -1.08.

For `CCOC(=O)C1=C(C)Oc2nc3c(c(N)c2C1c1cccc(OC)c1)CCCCC3` (stereo unspecified), the logRA was -1.86.

`Nc1c2c(nc3cc(F)ccc13)-c1ccccc1C2` came in with a logRA of -0.681.

`Cc1ccc2c(c1)-c1nc3ccccc3c(N)c1C2` gave a logRA of -1.26.

With `CC1=CC2Cc3nc4cc(Cl)ccc4c(NCCCCCCNc4c5c(nc6ccccc46)CCCC5)c3C(C1)C2` (stereo unspecified), the logRA worked out at 2.61.

As to `CCOC(=O)C1=C(C)Oc2nc3c(c(N)c2C1c1ccncc1)CCC3` (stereo unspecified), the logRA is -1.67.

Take `CCOC(=O)C1=C(C)Oc2nc3c(c(N)c2C1c1ccc(OC)c(OC)c1)CCCCC3` (stereo unspecified): the logRA is -2.26.

In turn, `Cc1cccc2c1Cc1c-2nc2ccccc2c1N` yielded a logRA of -1.19.

Turning to `CCOC(=O)c1c(C)nc2nc3c(c(N)c2c1-c1ccc(Cl)cc1)CCCC3`, the logRA was -0.859.

Molecule `c1ccc2c(NCCCCCCCNc3c4c(nc5ccccc35)CCCC4)c3c(nc2c1)CCCC3` displayed a logRA of 2.41.

Regarding `CCOC(=O)C1=C(C)Oc2nc3c(c(N)c2C1c1ccc(C#N)cc1)CCCC3` (stereo unspecified), the logRA is -1.43.

For the molecule `CCOC(=O)c1c(C)nc2nc3c(c(N)c2c1-c1ccc(OC)cc1)CCC3`, the logRA is -2.02.

`CCOC(=O)C1=C(C)Oc2nc3c(c(N)c2C1c1ccccc1)CCC3` (stereo unspecified) came in with a logRA of -1.48.

Turning to `Nc1c2c(nc3cc(Cl)ccc13)-c1ccccc1C2`, the logRA is -1.42.

`CCOC(=O)c1c(C)nc2nc3c(c(N)c2c1-c1ccncc1)CCCC3` showed a logRA of -1.

`CCOC(=O)C1=C(C)Oc2nc3c(c(N)c2C1c1ccccc1OC)CCCC3` (stereo unspecified): the logRA was -1.63.

On to `c1ccc2c(NCCCCCCNc3c4c(nc5ccccc35)CCCCC4)c3c(nc2c1)CCCCC3`, for which the logRA was 2.19.

`CCOC(=O)c1c(C)nc2nc3c(c(N)c2c1-c1ccccc1)CCCC3`: the logRA is -0.801.

For `COc1cccc2c1Cc1c-2nc2ccccc2c1N`, the logRA was -0.806.

In turn, `CCOC(=O)C1=C(C)Oc2nc3c(c(N)c2C1c1ccc(OC)cc1)CCCC3` (stereo unspecified) showed a logRA of -0.825.

`CCOC(=O)c1c(C)nc2nc3c(c(N)c2c1-c1ccncc1)CCC3` came in with a logRA of -1.77.

Turning to `Nc1c2c(nc3ccccc13)-c1ccccc1C2`, the logRA was -0.435.

Molecule `Nc1c2c(nc3ccccc13)CSCC2O` (stereo unspecified) displayed a logRA of -0.852.

Take `c1ccc2c(NCCCCCCNc3c4c(nc5ccccc35)CCCC4)c3c(nc2c1)CCCC3`: the logRA was 2.38.

As for `COc1ccc2c(c1)Cc1c-2nc2ccccc2c1N`, the logRA is -1.42.

`Fc1ccc2c(NCCCCCCNc3c4c(nc5cc(F)ccc35)CCCC4)c3c(nc2c1)CCCC3` yielded a logRA of 2.57.

As for `Nc1c2c(nc3ccccc13)CSCC2=O`, the logRA was -0.745.

The molecule `CCOC(=O)C1=C(C)Oc2nc3c(c(N)c2C1c1cccc([N+](=O)[O-])c1)CCCC3` (stereo unspecified) came in with a logRA of -1.16.

Molecule `Nc1c2c(nc3ccccc13)-c1ccc(Cl)cc1C2` displayed a logRA of -1.33.

Consider `CCOC(=O)c1c(C)nc2nc3c(c(N)c2c1-c1ccc(OC)c(OC)c1)CCCCC3`, for which the logRA was -1.55.

As for `CCOC(=O)C1=C(C)Oc2nc3c(c(N)c2C1c1ccc(OC)c(OC)c1)CCCC3` (stereo unspecified), the logRA was -1.41.

Turning to `CCOC(=O)c1c(C)nc2nc3c(c(N)c2c1-c1cccc(OC)c1)CCCC3`, the logRA is -0.824.

On to `Cc1nc2nc3c(c(N)c2c(-c2ccccc2)c1C(=O)OC(C)C)CCCC3`, for which the logRA is -0.824.

`CCOC(=O)c1c(C)nc2nc3c(c(N)c2c1-c1ccc(OC)cc1)CCCCC3` had a logRA of -1.02.

The molecule `Fc1ccc2c(NCCCCCCCNc3c4c(nc5ccccc35)CCC4)c3c(nc2c1)CCC3` registered a logRA of 0.647.

Molecule `CCOC(=O)C1=C(C)Oc2nc3c(c(N)c2C1c1ccncc1)CCCC3` (stereo unspecified) registered a logRA of -1.33.

`CCOC(=O)C1=C(C)Oc2nc3c(c(N)c2C1c1ccc(Cl)cc1)CCCC3` (stereo unspecified): the logRA is -1.17.

As to `Clc1ccc2c(NCCCCCCNc3c4c(nc5cc(Cl)ccc35)CCCC4)c3c(nc2c1)CCCC3`, the logRA was found to be 2.74.

As for `CCOC(=O)c1c(C)nc2nc3c(c(N)c2c1-c1cccs1)CCCCC3`, the logRA was -2.01.

`CCOC(=O)C1=C(C)Oc2nc3c(c(N)c2C1c1ccc(OC)c(OC)c1)CCC3` (stereo unspecified) returned a logRA of -2.18.

Consider `Nc1c2c(nc3ccccc13)C[S+]([O-])CC2O` (stereo unspecified), for which the logRA was -0.745.

Regarding `CCOC(=O)C1=C(C)Oc2nc3c(c(N)c2C1c1ccncc1)CCCCC3` (stereo unspecified), the logRA was -1.79.

As to `c1ccc2c(NCCCCCCCCNc3c4c(nc5ccccc35)CCCC4)c3c(nc2c1)CCCC3`, the logRA stood at 2.32.

With `CCOC(=O)c1c(C)nc2nc3c(c(N)c2c1-c1ccc(F)cc1)CCCCC3`, the logRA is -1.48.

In turn, `CC1=CC2Cc3nc4cc(Cl)ccc4c(NCCCN(C)CCCNc4c5c(nc6ccccc46)CCCC5)c3C(C1)C2` (stereo unspecified) gave a logRA of 2.81.

`CC1=CC2Cc3nc4ccccc4c(NCCCCCCCCNc4c5c(nc6ccccc46)CCCC5)c3C(C1)C2` (stereo unspecified) registered a logRA of 2.4.

Molecule `CCOC(=O)C1=C(C)Oc2nc3c(c(N)c2C1c1ccccc1OC)CCCCC3` (stereo unspecified) yielded a logRA of -2.07.

`CC1=CC2Cc3nc4cc(Cl)ccc4c(NCCCCCCCNc4c5c(nc6ccccc46)CCCC5)c3C(C1)C2` (stereo unspecified) showed a logRA of 2.78.

Molecule `CCOC(=O)c1c(C)nc2nc3c(c(N)c2c1-c1ccc(OC)cc1)CCCC3` returned a logRA of -1.84.

`CCOC(=O)c1c(C)nc2nc3c(c(N)c2c1-c1ccccc1)CCC3` returned a logRA of -1.96.

On to `CCOC(=O)c1c(C)nc2nc3c(c(N)c2c1-c1ccc(F)cc1)CCCC3`, for which the logRA was -0.596.

In turn, `CC1=CC2Cc3nc4cc(Cl)ccc4c(NCCCCCCCCNc4c5c(nc6cc(Cl)ccc46)CCCC5)c3C(C1)C2` (stereo unspecified) displayed a logRA of 2.71.

`CCOC(=O)c1c(C)nc2nc3c(c(N)c2c1-c1ccncc1)CCCCC3` gave a logRA of -1.56.

`CC1=CC2Cc3nc4cc(Cl)ccc4c(NCCCN(C)CCCNc4c5c(nc6cc(Cl)ccc46)CCCC5)c3C(C1)C2` (stereo unspecified) displayed a logRA of 2.85.

`CC1=CC2Cc3nc4cc(Cl)ccc4c(NCCCCCCNc4c5c(nc6cc(Cl)ccc46)CCCC5)c3C(C1)C2` (stereo unspecified) yielded a logRA of 2.66.

In turn, `O=C(CNc1c2c(nc3ccccc13)CCCC2)NCCC1CCN(c2ccccc2)CC1` showed a logRA of 1.57.

Turning to `Nc1ccc2nc3c(c(N)c2c1)Cc1ccccc1-3`, the logRA is -1.37.

The molecule `CCOC(=O)C1=C(C)Oc2nc3c(c(N)c2C1c1cccnc1)CCCC3` (stereo unspecified) showed a logRA of -1.71.

`CCOC(=O)c1c(C)nc2nc3c(c(N)c2c1-c1ccc(OC)c(OC)c1)CCCC3`: the logRA is -0.859.

`CCOC(=O)c1c(C)nc2nc3c(c(N)c2c1-c1cccc([N+](=O)[O-])c1)CCCC3` returned a logRA of -0.713.

In turn, `COc1ccc2c(c1)-c1nc3ccccc3c(N)c1C2` returned a logRA of -1.24.

Molecule `CC1=CC2Cc3nc4cc(Cl)ccc4c(NCCCCCCCCNc4c5c(nc6ccccc46)CCCC5)c3C(C1)C2` (stereo unspecified) came in with a logRA of 2.79.

As to `CCOC(=O)C1=C(C)Oc2nc3c(c(N)c2C1c1ccccc1OC)CCC3` (stereo unspecified), the logRA was -2.12.

Regarding `CCOC(=O)c1c(C)nc2nc3c(c(N)c2c1-c1cccs1)CCCC3`, the logRA is -2.25.

Molecule `Fc1ccc2c(NCCCCCCCCNc3c4c(nc5cc(F)ccc35)CCCC4)c3c(nc2c1)CCCC3` returned a logRA of 2.68.
